# Test results taken from patent publication US20120121736A1, “COMPOSITION FOR TREATING GASTRIC ULCER AND A PROCESS THEREOF” (priority 2010, published 2012).
# What was measured:
# [1] = test system: Cold Restraint Ulcer Model (CRU); assay: Cold Restraint Ulcer (CRU) model; type: in vivo, rats
# Protocol: EXPERIMENT 1: EFFECT ON COLD RESTRAINT ULCERS (CRU) MODEL METHOD: Adult rats of either sex, weighing 150-175 grams are fasted for 24 hours in metallic cages with raised mesh bottoms to prevent coprophagia and were allowed free access to water. The test drugs were administered 45 minutes before immobilizing the animals. The rats were immobilized in the restraint cage and kept at 4° C. in BOD incubator for 2 hours (According to the method of Senay and Levine 1967). The animals were sacrificed immediately after the restraint period. The abdomen was cut opened; stomach was taken out and incised along the greater curvature to observe the gastric lesions with the help of Magnascope (5× magnification) The following arbitrary scoring system was used to grade the severity and intensity of the lesions: 1. Shedding of epithelium=10 2. Petechial and frank hemorrhages=20 3. One or two ulcers=30 4. More than two ulcers=40 5. Perforated ulcers=50 The presence of any of these lesions was considered as a positive ulcerogenic response which has been shown as percentage of rats showing gastric lesions. The severity of ulcers is expressed in terms of ulcer index, which is the mean score of gastric lesions of all the rats in a group. The term Ulcer Index is defined as: Ulcer Index (U. I.)=Us+Up×10−1 where Us=Mean severity of ulcer score and Up=Percentage of animals with Ulcer incidences. The percentage protection is calculated as follows: Percentage protection=(C−T/C)×100. where C=Number of animals showing ulcer response in control group and T=Number of animals showing ulcer response in test group.
# [2] = test system: Aspirin induced ulcer model; assay: Aspirin induced gastric ulcer model; type: in vivo, rats
# Protocol: EXPERIMENT 2: EFFECT ON ASPIRIN INDUCED GASTRIC ULCER MODEL Method: Gastric ulceration was induced by aspirin according to the method of Djahanguiri (1969). Aspirin (150 mg/Kg.) was administered per orally as a suspension in gum-acacia and the animal was sacrificed 5 hr. after the aspirin treatment and the ulcer index with protection index were calculated.
# [3] = test system: histamine induced duodenal ulcer; assay: Histamine induced duodenal ulcer model; type: in vivo, Guinea pig
# Protocol: EXPERIMENT 3: EFFECT ON HISTAMINE INDUCED ULCER MODEL Method:
# 1. Animals were fasted for 24 hours with access to water.
# 2. The drug was given orally 1 hour prior to the histamine administration.
# 3. Histamine was administered in a dose of 0.25 mg/Kg, i. m. at 30 minutes interval for 7 times and it induced 100% duodenal ulceration in guinea pig (According to the method of Watt and Eagleton 1964).
# 4. The animals were sacrificed after half an hour of last injection under ether anesthesia.
# 5. The stomach along with duodenum were removed washed thoroughly and examined for the lesions. Ulcer index and protection index were calculated.
# [4] = test system: Ethanol Induced Ulcer Model; assay: Alcohol (ethanol) induced gastric ulcer model; type: in vivo, rats; settings: in respect to the protection of Omeprazole taken as 100%
# Protocol: EXPERIMENT 4: EFFECT ON ALCOHOL INDUCED GASTRIC ULCERS IN RATS Method: 1. Adult rats of either sex were taken; weighing 150-175 grams were fasted for 24 hours with free access to water.
# 2. The test drugs were administered (p. o.) 45 minutes before alcohol administration.
# 3. 1 ml of chilled absolute alcohol was administered (p. o.) to the rats (According to the Wittetal).
# 4. Immediately after 1 hour, the animals were anesthetized, abdomen was cut opened stomach was taken out and incised along the greater curvature to observe the gastric lesions.
# The ulcers are examined under the 5× magnification with the help of magnascope. Absolute ethanol lesions appears as blackish lesions grouped in patches of varying size, usually parallel to the major axis of the stomach.
# 5. The lengths of the lesions are measured and summated to give a total lesion score, then calculated and expressed in percentage.
# [5] = test system: pyloric ligation induced Ulcer; assay: Pyloric ligation induced ulcer model; type: in vivo, rats; settings: in respect to the protection of Omeprazole taken as 100%
# Protocol: EXPERIMENT 5: EFFECT ON PYLORIC LIGATION INDUCED ULCER MODEL Method: 1. Animals were fasted for 24 hours in the raised mesh bottom cages to prevent coprophagia and were allowed free access to water. 2. The control group of rats was feed with the vehicle and the experimental groups with their respective drugs 45 minutes prior to the ligation. 3. The animal was anesthetized, abdomen was cut opened under xiphoid process, and the pyloric portion of the stomach was slightly lifted and ligated avoiding any damage to the adjacent blood vessels (According to the method of Shay et al. 1945). 4. The animals were stitched and kept for 4 hours with free access to water. 5. After 4 hours the animals were sacrificed under ether anesthesia and the stomach was dissected out incised along the greater curvature. 6. The stomach was washed thoroughly and the ulcer index was scored as per in other ulcer models.
# [6] = 10 mg/Kg, standard, protection taken as 100%
smiles,measurement,setting,value
COc1ccc2[nH]c([S+]([O-])Cc3ncc(C)c(OC)c3C)nc2c1 (stereo not drawn) [Omeprazole],PERCENTAGE PROTECTION,[1]; [6],100%
same,Ulcer severity (type of lesions) Scores (No. of rats showing lesions/No. of rats tested) 10,"[1]; 10 = Shedding of epithelium, Omeprazole 10 mg/Kg, p.o.",3/10
same,Ulcer severity (type of lesions) Scores (No. of rats showing lesions/No. of rats tested) 20,"[1]; 20 = Petechial and frank hemorrhages, Omeprazole 10 mg/Kg, p.o.",2/10
same,PERCENTAGE PROTECTION,[2]; [6],100%
same,Ulcer severity (type of lesions) Scores (No. of rats showing lesions/No. of rats tested) 10,"[2]; 10 = Shedding of epithelium, Omeprazole 20 mg/Kg, Aspirin 150 mg/Kg p.o.",2/6
same,Ulcer severity (type of lesions) Scores (No. of rats showing lesions/No. of rats tested) 20,"[2]; 20 = Petechial and frank hemorrhages, Omeprazole 20 mg/Kg, Aspirin 150 mg/Kg p.o.",1/6
same,Percentage of ulcer incidence (No. of rats showing ulcer/total No. of rats used),[2]; Omeprazole 20 mg/Kg,50 (3/6) %
same,Volume of gastric fluid,"[3]; Omeprazole 10 mg/Kg, p.o.",1.0 ± 0.2 mL
same,PERCENTAGE PROTECTION,[3]; in respect to the protection of Omeprazole taken as 100%,100%
same,Ulcer severity (type of lesions) Scores (No. of Guinea pig showing lesions/No. of Guinea pig tested) 20,"[3]; score 20, Omeprazole 10 mg/Kg, p.o.",1/3
same,PROTECTION (Percentage protection),[4],100.0%
same,PROTECTION (Percentage protection),[5],100%
